In patent publication US5871753A, “Regulated transcription of targeted genes and other biological events” (Board of Trustees of the Leland Stanford Junior University, priority 1995, dated 1999):

Columns and labels:
[1] = test system: chimeric receptor TAC/TAC/ZETA (TTZ); experiment: Secreted alkaline phosphatase reporter (NFAT-SX and other IL-2 enhancer elements) activation via cross-linking of chimeric receptor TAC/TAC/ZETA in TAg Jurkat cells; assay type: cell-based, human; settings: 1 ng/ml FK506; TTZ-transfected TAg Jurkat cells
Text: Induction of isolated IL-2 Enhancer-Binding Transcription Factors by cross-Linking the CD3.zeta. Chain of the T-Cell Receptor
The plasmid pSXNeo/IL2 (IL2-SX) (FIG. 1), placing the placental secreted alkaline phosphatase gene under the control of human IL-2 promoter (-325 to +47; MCB(86) 6, 3042), and variants (i.e. NFAT-SX, NFκB-SX, OAP/Oct1-SX, and AP-1-SX) under the control of the minimal IL-2 promoter (-325 to -294 and -72 to +47) plus synthetic oligomers, containing various promoter elements (i.e. NFAT, NKκKB, OAP/Oct-1, and AP1, respectively), were made by three piece ligations of 1) pPL/SEAP (Berger, et al., Gene (1988) 66,1) cut with SspI and HindIII; 2) pSV2/Neo (Southern and Berg, J. Mol. Appl. Genet. (1982) 1, 332) cut with NdeI, blunted with Klenow, then cut with PvuI; and 3) various promoter-containing plasmids (i.e. NFAT-CD8, κB-CD8, cx12lacZ-Oct-1, AP1-LUCIF3H, or cx15IL2) (described below) cut with PvuI and HindIII. NFAT-CD8 contains 3 copies of the NFAT-binding site (-286 to -257; Genes and Dev. (1990) 4, 1823) and cx12lacZ-Oct contains 4 copies of the OAP/Oct-1/(ARRE-1) binding site (MCB, (1988) 8, 1715) from the human IL-2 enhancer; κB-CD8 contains 3 copies of the NFκB binding site from the murine κ light chain (EMBO (1990) 9, 4425) and AP1-LUCIF3H contains 5 copies of the AP-1 site (5'-[…]-3') from the metallothionen promoter. […]

[2] = test system: chimeric FKBP12/CD3.zeta. (1FK3) receptor; experiment: NFAT-inducible secreted alkaline phosphatase reporter activation through chimeric FKBP12/CD3.zeta. (1FK3) receptor; assay type: cell-based, human; settings: 2 ng/ml FK506; FK1012A-stimulated 1FK3 transfected cells
Protocol: Activity of the Dimeric FK506 Derivative, FK1012A, on the Chimeric FKBP12/CD3.zeta. (1FK3) Receptor
5 μg of the eukaryotic expression vector, pBJ5, (based on pCDL-SRαwith a polylinker inserted between the 16S splice site and the poly A site) containing the chimeric receptor (1FK3), was co-transfected with 4 μg of the NFAT-inducible secreted alkaline phosphatase reporter plasmid, NFAT-SX. As a control, 5 μg of pBJ5 was used, instead of 1FK3/pBJ5, in a parallel transfection. After 24 hours, aliquots of each transfection containing approximately 10^5 cells were incubated with log dilutions of the drug, FK1012A, as indicated. As a positive control and to control for transfection efficiency, ionomycin (1 μm) and PMA (25 ng/ml) were added to aliquots from each transfection. After an additional 14 hour incubation, the supernatants were assayed for alkaline phosphatase activity and these activities were expressed relative to that of the positive control samples.
To obtain the binding domain for FK506, plasmid rhFKBP (provided by S. Schreiber, Nature (1990) 346, 674) was used with P#6052 (SEQ ID NO. 33) and P#6053 (SEQ ID NO. 35) to obtain a 340 bp XhoI-SalI fragment containing human FKBP12. This fragment was inserted into pBluescript digested with XhoI and SalI to provide plasmid FK12/KS, which was the source for the FKBP12 binding domain. […]

[3] = test system: myristoylated chimeric CD3.zeta./FKBP12 (MZF3E) receptor; experiment: NFAT-SX secreted alkaline phosphatase reporter activation through myristoylated chimeric CD3.zeta./FKBP12 (MZF3E) receptor; assay type: cell-based, human; settings: 1 ng/ml FK506, FK1012B-stimulated
Protocol: Activity of the Dimeric FK506 Derivative, FK1012B, on the Myristoylated Chimeric CD3.zeta./FKBP12 (MZF3E) Receptor
5 μg of the eukaryotic expression vector, pBJ5, containing a myristoylated chimeric receptor was co-transfected with 4 μg NFAT-SX. MZE, MZF1E, MZF2E and MZF3E contain 0, 1, 2, or 3 copies of FKBP12, respectively, downstream of a myristoylated CD3.zeta. cytoplasmic domain (see FIG. 2). As a control, 5 μg of pBJ5 was used in a parallel transfection. After 24 hours, aliquots of each transfection containing approximately 10^5 cells were incubated with log dilutions of the drug, FK1012B, as indicated. As a positive control and to control for transfection efficiency, ionomycln (1 μm) and PMA (25 ng/ml) were added to aliquots from each transfection. After an additional 12 hour incubation, the supernatants were assayed for alkaline phosphatase activity and these activities were expressed relative to that or the positive control samples. […] Compare FIGS. 7 and 8.
A myristoylation sequence from c-src was obtained from Pellman, et al., Nature 314, 374, and joined to a complementary sequence of CD3.zeta. to provide a primer which was complementary to a sequence 3' of the transmembrane domain, namely P#8908 (SEQ ID NO. 23). This primer has a SacII site adjacent to the 5' terminus and a XhoI sequence adjacent to the 3' terminus of the myristoylation sequence. […]

[4] = test system: NF-AT-directed transcription; settings: Emmel et al. 1989; Flanagan et al. 1991; cited from earlier work

In the case of `C=CC[C@@H]1/C=C(\C)C[C@H](C)C[C@H](OC)[C@H]2O[C@@](O)(C(=O)C(=O)N3CCCC[C@H]3C(=O)O[C@H](/C(C)=C/[C@@H]3CC[C@@H](O)[C@H](OC)C3)[C@H](C)[C@@H](O)CC1=O)[C@H](C)C[C@@H]2OC` [FK506], the “activity due to NFAT after addition of FK506” value [1] was “dropped all activity due to NFAT to background levels”, the “stimulations after addition of FK506” value [2] was “dropped all stimulations to background levels” and the “stimulations after addition of FK506” value [3] was “dropped all stimulations to near background levels”. The “inhibition of NF-AT-directed transcription” value [4] was “Inhibition of NF-AT-directed transcription”.
